Data taken from patent US9000174B2, “4-phenylsulfonamidopiperidines as calcium channel blockers” (Purdue Pharma L.P., priority 2004, dated 2015).
Where a name gives a salt, the structure may show the parent alone.

How the values were obtained:
[1] = target: T1, L-type calcium channel (LTCC) (Rattus norvegicus, UniProt P22002); assay: FLIPR calcium mobilization (and/or electrophysiological) assay for L-type calcium channel; type: cell-based; conditions: calcium mobilization and/or electrophysiological in vitro assay; differentiated A7r5 cells, 90 mM KCl
T1 construct: differentiated A7r5 cells were trypsinized, then seeded on tissue culture treated 96-well clear-bottom black plates; endogenous in cells; host or cells: differentiated A7r5 cells (ATCC)
T1 sequence (P22002 whole entry): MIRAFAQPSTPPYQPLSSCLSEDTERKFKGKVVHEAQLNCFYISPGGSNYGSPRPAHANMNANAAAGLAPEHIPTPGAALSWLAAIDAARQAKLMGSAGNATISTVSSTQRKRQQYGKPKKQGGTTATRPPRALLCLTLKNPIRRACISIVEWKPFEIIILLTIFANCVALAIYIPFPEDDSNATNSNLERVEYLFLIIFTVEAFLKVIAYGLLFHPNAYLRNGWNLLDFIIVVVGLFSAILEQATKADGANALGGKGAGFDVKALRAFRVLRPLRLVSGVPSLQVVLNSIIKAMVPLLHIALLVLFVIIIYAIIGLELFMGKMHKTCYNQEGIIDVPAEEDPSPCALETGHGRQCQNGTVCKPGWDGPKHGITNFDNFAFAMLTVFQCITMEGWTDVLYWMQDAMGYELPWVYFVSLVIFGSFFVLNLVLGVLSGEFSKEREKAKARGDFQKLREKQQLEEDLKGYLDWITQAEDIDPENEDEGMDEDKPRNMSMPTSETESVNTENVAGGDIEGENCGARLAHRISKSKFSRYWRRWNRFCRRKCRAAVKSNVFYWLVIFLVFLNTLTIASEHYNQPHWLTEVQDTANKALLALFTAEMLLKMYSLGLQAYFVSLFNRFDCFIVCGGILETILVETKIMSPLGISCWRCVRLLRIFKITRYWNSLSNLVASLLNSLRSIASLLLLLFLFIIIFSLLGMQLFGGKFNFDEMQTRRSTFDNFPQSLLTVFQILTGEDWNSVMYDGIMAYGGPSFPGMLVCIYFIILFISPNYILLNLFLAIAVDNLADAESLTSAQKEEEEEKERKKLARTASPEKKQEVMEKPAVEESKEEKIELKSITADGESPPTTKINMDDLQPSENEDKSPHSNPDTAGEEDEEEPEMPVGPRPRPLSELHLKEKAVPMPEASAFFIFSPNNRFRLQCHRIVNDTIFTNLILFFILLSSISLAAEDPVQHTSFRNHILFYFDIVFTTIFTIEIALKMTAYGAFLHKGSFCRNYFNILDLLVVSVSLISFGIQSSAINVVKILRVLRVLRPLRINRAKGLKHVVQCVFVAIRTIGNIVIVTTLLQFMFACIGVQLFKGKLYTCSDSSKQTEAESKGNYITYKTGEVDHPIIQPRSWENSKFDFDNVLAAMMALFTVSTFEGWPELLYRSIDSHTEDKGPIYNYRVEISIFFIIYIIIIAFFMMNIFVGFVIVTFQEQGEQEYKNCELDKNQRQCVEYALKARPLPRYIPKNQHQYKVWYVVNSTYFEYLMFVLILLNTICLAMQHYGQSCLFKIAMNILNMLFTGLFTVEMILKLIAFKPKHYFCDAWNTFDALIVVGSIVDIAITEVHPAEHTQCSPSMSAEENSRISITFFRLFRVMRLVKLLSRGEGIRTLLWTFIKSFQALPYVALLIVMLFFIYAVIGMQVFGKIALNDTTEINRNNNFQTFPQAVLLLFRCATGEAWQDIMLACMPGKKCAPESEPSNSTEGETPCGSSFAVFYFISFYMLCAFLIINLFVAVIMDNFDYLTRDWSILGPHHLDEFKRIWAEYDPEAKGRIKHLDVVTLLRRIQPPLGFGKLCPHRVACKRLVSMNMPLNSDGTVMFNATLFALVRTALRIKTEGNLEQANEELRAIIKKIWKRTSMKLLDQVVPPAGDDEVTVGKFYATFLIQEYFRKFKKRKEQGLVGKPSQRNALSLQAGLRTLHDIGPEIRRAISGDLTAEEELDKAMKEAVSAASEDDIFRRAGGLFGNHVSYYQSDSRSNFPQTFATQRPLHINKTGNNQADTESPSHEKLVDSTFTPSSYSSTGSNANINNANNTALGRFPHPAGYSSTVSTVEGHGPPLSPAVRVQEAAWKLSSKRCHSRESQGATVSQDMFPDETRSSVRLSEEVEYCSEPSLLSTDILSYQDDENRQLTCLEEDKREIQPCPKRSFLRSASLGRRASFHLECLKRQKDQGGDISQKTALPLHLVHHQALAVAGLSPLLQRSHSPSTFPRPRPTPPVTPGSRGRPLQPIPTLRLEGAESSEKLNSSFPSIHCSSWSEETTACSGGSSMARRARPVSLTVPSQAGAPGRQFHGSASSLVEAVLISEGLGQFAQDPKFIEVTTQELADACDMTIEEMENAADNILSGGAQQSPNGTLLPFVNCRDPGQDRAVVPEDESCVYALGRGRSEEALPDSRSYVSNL
T1 sequence (P54290 25-944 partner limits assumed): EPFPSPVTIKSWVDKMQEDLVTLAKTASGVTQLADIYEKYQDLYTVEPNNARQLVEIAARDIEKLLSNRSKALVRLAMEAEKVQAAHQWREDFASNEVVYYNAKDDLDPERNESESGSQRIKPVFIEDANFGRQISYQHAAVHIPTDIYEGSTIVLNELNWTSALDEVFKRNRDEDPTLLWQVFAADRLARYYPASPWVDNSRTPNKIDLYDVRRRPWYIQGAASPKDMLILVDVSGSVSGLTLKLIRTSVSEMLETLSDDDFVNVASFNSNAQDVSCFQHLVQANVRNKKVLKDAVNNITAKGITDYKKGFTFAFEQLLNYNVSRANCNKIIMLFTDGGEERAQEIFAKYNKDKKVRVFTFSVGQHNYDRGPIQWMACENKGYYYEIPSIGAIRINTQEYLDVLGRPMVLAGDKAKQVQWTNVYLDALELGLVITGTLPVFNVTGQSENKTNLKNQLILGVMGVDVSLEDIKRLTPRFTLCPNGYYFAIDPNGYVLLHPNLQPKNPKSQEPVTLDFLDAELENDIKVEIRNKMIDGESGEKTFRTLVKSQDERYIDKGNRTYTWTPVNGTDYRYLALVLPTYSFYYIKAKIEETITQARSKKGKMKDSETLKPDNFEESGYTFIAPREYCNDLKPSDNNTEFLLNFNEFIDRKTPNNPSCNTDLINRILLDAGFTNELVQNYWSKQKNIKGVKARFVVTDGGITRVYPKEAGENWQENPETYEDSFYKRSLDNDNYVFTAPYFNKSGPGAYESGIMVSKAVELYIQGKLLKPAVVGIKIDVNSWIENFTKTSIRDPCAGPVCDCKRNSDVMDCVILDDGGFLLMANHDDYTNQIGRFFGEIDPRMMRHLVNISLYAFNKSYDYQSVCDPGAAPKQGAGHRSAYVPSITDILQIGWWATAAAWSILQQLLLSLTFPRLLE
T1 sequence (P54290 945-1091 partner limits assumed): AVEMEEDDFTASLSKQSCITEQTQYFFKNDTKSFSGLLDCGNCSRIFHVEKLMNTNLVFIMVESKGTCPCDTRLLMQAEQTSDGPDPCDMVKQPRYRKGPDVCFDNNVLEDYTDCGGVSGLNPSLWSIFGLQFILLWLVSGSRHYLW
T1 sequence (P54287 whole entry partner): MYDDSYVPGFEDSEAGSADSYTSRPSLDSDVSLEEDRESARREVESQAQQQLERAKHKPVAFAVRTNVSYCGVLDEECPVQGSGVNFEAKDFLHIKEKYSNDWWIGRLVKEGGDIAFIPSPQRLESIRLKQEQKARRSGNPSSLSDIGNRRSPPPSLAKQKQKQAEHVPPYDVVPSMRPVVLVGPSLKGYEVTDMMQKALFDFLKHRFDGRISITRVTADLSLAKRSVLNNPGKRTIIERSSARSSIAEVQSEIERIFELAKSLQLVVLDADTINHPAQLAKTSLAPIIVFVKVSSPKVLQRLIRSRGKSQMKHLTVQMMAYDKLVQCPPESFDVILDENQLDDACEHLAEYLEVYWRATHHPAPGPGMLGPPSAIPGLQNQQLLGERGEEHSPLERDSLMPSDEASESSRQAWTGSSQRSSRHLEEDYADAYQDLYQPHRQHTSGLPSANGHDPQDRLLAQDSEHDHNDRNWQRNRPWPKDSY
Experimental: A7r5 (ATCC) cells were maintained and routinely cultured in A7r5 growth medium consisting of Dulbecco's Modified Eagles Medium containing 10% FBS, 100 U/mL penicillin, 100 μg/mL streptomycin, 4 mM L-glutamine, and 0.15% sodium bicarbonate. 80-90% confluent flasks of cells were differentiated using the following differentiation medium: A7r5 Growth Medium plus 1 mM dibutyryl cyclic AMP (Sigma). Cells were differentiated for 8 days by replacing differentiation medium every 2-3 days.
One day prior to performing this assay, differentiated A7r5 cells were trypsinized, then seeded on tissue culture treated 96-well clear-bottom black plates (Becton Dickinson, Franklin Lakes, N.J.) at a dilution of 1:1 from a confluent T150 cm^2 flask. On the day of the assay, the plates were washed with A7r5 wash buffer (127 mM NaCl, 2 mM MgCl2, 700 μM NaH2PO4, 5 mM CaCl2, 5 mM NaHCO3, 8 mM HEPES, 10 mM glucose, pH 7.4), then loaded with 0.1 mL of A7r5 wash buffer containing Fluo-4 (3 μM final concentration, Molecular Probes, Eugene, Oreg.). After 1 hour, the cells were washed with 0.1 mL A7r5 wash buffer and resuspended in 0.05 mL A7r5 assay buffer that was composed of A7r5 wash buffer plus 50 μM valinomycin (Sigma). Plates were then transferred to a FLIPR^96 for assay. The FLIPR measured basal Fluo-4 fluorescence for 15 seconds, then added 0.05 mL of each compound tested diluted in A7r5 assay buffer at final concentrations ranging from about 846 pM to about 17 μM. Fluo-4 fluorescence was then measured for 5 minutes. 0.1 mL KCl agonist dissolved in A7r5 assay buffer was then added to the cells to produce a final concentration of 90 mM KCl, and fluorescence was measured for another 45 seconds. Data were collected over the entire time course and analyzed using Excel, Graph Pad Prism, or Activity Base software.

[2] = target: T2, N-type calcium channel (NTCC) (Homo sapiens, UniProt Q00975); assay: FLIPR calcium mobilization (and/or electrophysiological) assay for N-type calcium channel; type: cell-based; conditions: calcium mobilization and/or electrophysiological in vitro assay; differentiated IMR32 cells, 90 mM KCl, 5 μM nitrendipine
T2 construct: endogenous in cells; host or cells: differentiated IMR32 cells (ATCC)
Experimental: Unless noted otherwise, cell culture reagents were purchased from Life Technologies of Rockville, Md. IMR32 cells (American Type Culture Collection, ATCC, Manassas, Va.) were routinely cultured in growth medium consisting of minimum essential medium containing 10% fetal bovine serum (FBS, Hyclone, Logan, Utah), 100 U/mL penicillin, 100 μg/mL streptomycin, 2 mM L-glutamine, 1 mM sodium pyruvate, and 1×MEM non-essential amino acids. 80-90% confluent flasks of cells were differentiated using the following differentiation medium: Growth medium plus 1 mM dibutyryl cyclic AMP (Sigma, St. Louis, Mo.), and 2.5 μM bromodeoxyuridine (Sigma). Cells were differentiated for 8 days by replacing differentiation medium every 2-3 days.
One day prior to performing this assay, differentiated IMR32 cells were treated with 1× CellStripper, and seeded on poly-D-lysine-coated 96-well clear-bottom black plates (Becton Dickinson, Franklin Lakes, N.J.) at 200,000 cells/well. On the day of the assay, the cell plates were washed with IMR32 buffer (127 mM NaCl, 1 mM KCl, 2 mM MgCl2, 700 μM NaH2PO4, 5 mM CaCl2, 5 mM NaHCO3, 8 mM HEPES, 10 mM glucose, pH 7.4), then pre-stimulated with KCl and loaded as follows: 0.05 mL of IMR32 buffer, 0.05 mL of each compound tested diluted in IMR32 buffer containing 20 μM nitrendipine (Sigma), and 0.1 mL KCl dissolved in IMR32 buffer, plus Fluo-4 were added (3 μM final concentration, Molecular Probes, Eugene, Oreg.). Final test compound concentrations ranged from about 846 pM to about 17 μM, final nitrendipine concentration was 5 μM, and final KCl concentration was 90 mM. After 1 hour, the cells were washed twice with 0.05 mL of each compound tested in nitrendipine-containing IMR32 buffer (no KCl or Fluo-4), and then replaced with 0.1 mL of each compound tested in nitrendipine-containing IMR32 buffer. Plates were then transferred to a Fluorimetric Imaging Plate Reader (FLIPR^96, Molecular Devices, Inc., Sunnyvale, Calif.) for assay. The FLIPR measured basal Fluo-4 fluorescence for 315 seconds (i.e., 5 minutes and 15 seconds), then added 0.1 mL KCl agonist dissolved in IMR32 buffer and measured fluorescence for another 45 seconds. Final test compound concentrations on the cells after FLIPR read ranged from about 846 pM to about 17 μM, final nitrendipine concentration was 5 μM, and final KCl concentration was 90 mM. Data were collected over the entire time course and analyzed using Excel, Graph Pad Prism (version 3.02, Graph Pad, San Diego, Calif.), or Activity Base (version 5.1, IDBS, Parsippany, N.J.) software.
N-type calcium channel expressing HEK-293 cells were created in two stages. Stage 1 was created as follows. The rat α1b, and β3 cDNA expression constructs (2.5 μg each) were co-transfected into human embryonic kidney (HEK-293) cells by Lipofectamine Plus reagent (Invitrogen), as per manufacturer's instructions. 24 hours later, cells were split in limiting dilution into multiple 96-well plates in selection media containing 20 μg/mL blasticidin and 500 μg/mL geneticin, and incubated for 3 weeks at 37° C., 5% CO2, 95% humidity. Plates containing ≦1 clone per well were cultured until wells positive for single clones were confluent. Individual clones were then arrayed into columns of a destination 96-well plate, and partly split into 6-well plates for culture maintenance. Array plates were washed once with IMR32 buffer and cells loaded for 1 hour with 0.1 mL of IMR32 buffer containing Fluo-4 (3 μM final concentration, Molecular Probes). Then they were washed twice with 0.1 mL of IMR32 buffer, and replaced with 0.1 mL IMR32 buffer. Plates were then transferred to a FLIPR^96 for assay. The FLIPR measured basal Fluo-4 fluorescence for 315 seconds, then added 0.1 mL KCl agonist dissolved in IMR32 buffer and measured fluorescence for another 45 seconds. Final KCl concentration was 90 mM. Data were collected over the entire time course and analyzed using Excel, Graph Pad Prism, or Activity Base software. […]

Row | Compound | IC50 [1] [nM] | IC50 [2] [nM]
1 | CN[C@@H](CC(C)C)C(=O)N1CCC(N(C(C)C)S(=O)(=O)c2cccc(C(F)(F)F)c2)CC1 [(2S) N-Isopropyl-N-[1-(4-methyl-2-methylaminopentanoyl)-piperidin-4-yl]-3-trifluoromethylbenzenesulfonamide fumarate] | > 20000 | 870
2 | CN[C@@H](CC(C)C)C(=O)N1CCC(N(CC(C)C)S(=O)(=O)c2cccc(C(F)(F)F)c2)CC1 [(2S) N-i-butyl-N-[1-(4-methyl-2-methylaminopentanoyl)piperidin-4-yl]-3-trifluoromethylbenzenesulfonamide] | 9120 | 950
3 | CNC(Cc1ccccc1C)C(=O)N1CCC(N(C2CC2)S(=O)(=O)c2cccc(C(F)(F)F)c2)CC1 (centres unmarked) [N-Cyclopropyl-N-[1-(2-methylamino-3-o-tolylpropionyl)piperidin-4-yl]-3-trifluoromethylbenzenesulfonamide] | 10000 to 20000 | 390
4 | CCCc1ccc(S(=O)(=O)N2CCC(N(C3CC3)S(=O)(=O)c3cccc(C(F)(F)F)c3)CC2)cc1 [N-Cyclopropyl-N-[1-(4-propylphenylsulfonyl)piperidin-4-yl]-3-trifluoromethylbenzenesulfonamide] | 940 | 440
5 | O=S(=O)(c1cccc(C(F)(F)F)c1)N(C1CC1)C1CCN(CCOC(c2ccc(F)cc2)c2ccc(F)cc2)CC1 [N-Cyclopropyl-N-{1-[2-bis(4-fluorophenyl)methoxyethyl]piperidin-4-yl}-3-trifluoromethylbenzenesulfonamide] | 2230 | 780
6 | O=S(=O)(c1cccc(C(F)(F)F)c1)N(C1CC1)C1CCN(CCCC(c2ccc(F)cc2)c2ccc(F)cc2)CC1 [N-Cyclopropyl-N-{1-[4,4-bis(4-fluorophenyl)butyl]piperidin-4-yl}-3-trifluoromethylbenzenesulfonamide] | 3780 | 110
7 | COc1ccc(C(=O)N2CCC(N(C3CC3)S(=O)(=O)c3cccc(C(F)(F)F)c3)CC2)cc1C(F)(F)F [N-Cyclopropyl-N-{1-[(3-trifluoromethyl-4-methoxy)benzoyl]piperidin-4-yl}-3-trifluoromethylbenzenesulfonamide] | 4570 | 300

The next lines start with the values.

Row | IC50 [1] [nM] | IC50 [2] [nM] | Compound
8 | 5120 | 390 | CN[C@@H](CC(C)C)C(=O)N1CCC(N(C)S(=O)(=O)c2cccc(C(F)(F)F)c2)CC1 [(2S) N-Methyl-N-[1-(4-methyl-2-methylaminopentanoyl)-piperidin-4-yl]-3-trifluoromethylbenzenesulfonamide fumarate]
9 | 10000 to 20000 | 4280 | CC(C)C[C@H](N)C(=O)N1CCC(N(C2CC2)S(=O)(=O)c2ccccc2)CC1 [(2S) N-[1-(2-amino-4-methylpentanoyl)piperidin-4-yl]-N-cyclopropyl-benzenesulfonamide]
10 | 10000 | 360 | CN[C@@H](CC(C)C)C(=O)N1CCC(N(C2CC2)S(=O)(=O)c2cccc(C(F)(F)F)c2)CC1 [(2S) N-cyclopropyl-N-[1-(4-methyl-2-methylamino-pentanoyl)piperidin-4-yl]-3-trifluoromethylbenzenesulfonamide]
11 | 10000 to 20000 | 280 | CCCC(CC(=O)N1CCC(N(C2CC2)S(=O)(=O)c2cccc(C(F)(F)F)c2)CC1)N1CCSCC1 (centres unmarked) [N-Cyclopropyl-N-[1-(3-thiomorpholin-4-yl-hexanoyl)piperidin-4-yl]-3-trifluoromethylbenzenesulfonamide]
12 | 1700 | 860 | O=S(=O)(c1cccc(C(F)(F)F)c1)N(C1CC1)C1CCN(Cc2ccnc3ccccc23)CC1 [N-cyclopropyl-N-[1-(4-quinolinylmethyl)piperidin-4-yl]-3-trifluoromethylbenzenesulfonamide]
13 | 2590 | 1240 | O=C(CC=C(c1ccc(F)cc1)c1ccc(F)cc1)N1CCC(N(C2CC2)S(=O)(=O)c2ccccc2)CC1 [N-cyclopropyl-N-{1-[4,4-bis(4-fluorophenyl)but-3-enoyl]piperidin-4-yl}benzenesulfonamide]
14 | 1430 | 970 | O=C(CCC(c1ccc(F)cc1)c1ccc(F)cc1)N1CCC(N(C2CC2)S(=O)(=O)c2cccc(F)c2)CC1 [N-cyclopropyl-N-{1-[4,4-bis(4-fluorophenyl)butanoyl]piperidin-4-yl}-3-fluorobenzenesulfonamide]
15 | 3240 | 1090 | O=C(CCC(c1ccc(F)cc1)c1ccc(F)cc1)N1CCC(N(C2CC2)S(=O)(=O)c2ccccc2)CC1 [N-cyclopropyl-N-{1-[4,4-bis(4-fluorophenyl)butanoyl]piperidin-4-yl}benzenesulfonamide]
16 | 8600 | 180 | NC(Cc1ccc(F)cc1)C(=O)N1CCC(N(C2CC2)S(=O)(=O)c2cccc(C(F)(F)F)c2)CC1 (centres unmarked) [N-{1-[2-Amino-3-(4-fluorophenyl)propionyl]piperidin-4-yl}-N-cyclopropyl-3-trifluoromethylbenzenesulfonamide]
